From article PMC8151276, “An Integrated Approach toward NanoBRET Tracers for Analysis of GPCR Ligand Engagement” (Molecules, 2021)

Assays:
Format in all cases: binding
[1] = target: T1, NPSR1 (Homo sapiens, UniProt Q6W5P4); assay: NanoBRET screen HiBiT-NPSR1 in HEK293
T1 construct: purchased Promega (in-house HiBiT-GPCR construct library, NanoBRET)
T1 sequence (Q6W5P4 1-371): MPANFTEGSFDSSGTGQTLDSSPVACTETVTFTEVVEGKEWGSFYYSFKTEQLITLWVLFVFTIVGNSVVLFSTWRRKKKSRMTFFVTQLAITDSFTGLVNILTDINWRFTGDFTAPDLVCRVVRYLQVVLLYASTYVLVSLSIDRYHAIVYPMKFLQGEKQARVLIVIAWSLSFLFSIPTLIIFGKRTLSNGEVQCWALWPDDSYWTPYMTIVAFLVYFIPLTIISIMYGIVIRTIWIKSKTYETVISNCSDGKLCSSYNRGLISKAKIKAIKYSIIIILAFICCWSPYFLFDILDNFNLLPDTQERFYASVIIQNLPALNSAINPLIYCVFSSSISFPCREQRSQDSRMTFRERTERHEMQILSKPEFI
Description: (§1) Each tracer candidate was screened across the entire library of HiBiT-GPCR constructs using NanoBRET as the detection modality. As depicted in Figure 4A, the specificity of interactions was evaluated through decrease in BRET due to competitive displacement of a bound tracer by excess parental compound. Each tracer was analyzed for binding to each HiBiT-GPCR fusion in the absence and in the presence of competing parental compound. Briefly, HEK293 cells were transfected with HiBiT-GPCR constructs diluted into promoterless DNA to reduce expression and maximize translocation to the cell surface. Each tracer candidate was then screened at concentrations of 1 μM and 0.1 μM across cells expressing these fusions. Cells were treated for 1.5 h with tracer either alone or in the presence of 20 μM competing parental compound (i.e., control). BRET was measured upon addition of purified LgBiT and subsequent complementation with HiBiT genetically fused to a GPCR. The specificity of interactions was assessed through a decrease in BRET signal due to competitive displacement of the bound tracer. To further gauge the robustness of these interactions, the fold response over the control (i.e., BRETtracer/BRETcontrol) was calculated. We chose a 1.5-fold response, which translates to ≥7-fold signal over noise as the minimal threshold required to score an interaction as positive.
(§2) HiBiT-GPCR DNA constructs were diluted in 10 mM Tris pH 8 to a final concentration of 0.01 μg/μL, arrayed in 96-well plates and stored at −20 °C. For transfection, HEK293 cells were suspended in Opti-MEM (without phenol red) supplemented with 2% fetal bovine serum (Seradigm) and 100 units/mL penicillin–streptomycin (Gibco) at a final concentration of 220,000 cells/mL and dispensed into white 96-well plates at 90 μL/well. Subsequent transfections and screens were carried using an Agilent Bravo Automated Liquid Handling Platform. First, the 96-well HiBiT DNA arrays were diluted 25-fold in Opti-MEM (without serum or phenol red) to a final concentration of 0.0004 μg/μL and 20 μL of the diluted DNAs were transferred into new 96-well plates. Next, promoterless carrier DNA (1 μg/μL) was diluted 25-fold (0.04 μg/μL) and then dispensed into the diluted arrays at 20 μL/well. Following brief mixing, Viafect transfection reagent (Promega) diluted 16-fold into Opti-MEM was dispensed into the plates at 40 μL/well. After mixing by pipetting, plates were incubated for 10 min on the pipetting station deck. The DNA-transfection reagent complexes were then added to plates containing cells. To facilitate the screen, 10 μL of DNA-transfection reagent complexes were added in duplicates to the top 4 and bottom 4 rows, resulting in two identical 48-well arrays per plate. Plates with transfected cells were incubated for 18–20 h at 37 °C/5% CO2. A screen of each tracer across the entire library using two different concentrations requires duplicate plates of transfected cells. Depending on the number of tracers being screened, transfections can be scaled up using the same ratios. The next day, for each tracer, four 20× screening solutions in tracer dilution buffer (Promega) were prepared: two duplicates at final concentration of 20 μM and two duplicates at a final concentration of 2 μM. […] The four resulting solutions were diluted 4-fold in Opti-MEM without serum or phenol red to generate 5× solutions (5 µM and 0.5 µM tracer +/− 100 μM competing compound). To screen the library, a BioTek MultiFlo FX liquid dispenser was used to dispense 22.5 µL of tracer solution to the top 4 rows and 22.5 µL tracer + competing compound solution to the 4 bottom rows. Plates were briefly mixed on an orbital shaker and incubated for 1.5 h at room temperature. […] Plates were briefly mixed on an orbital shaker and incubated for 15 min to allow complementation.

[2] = target: T2, NPFFR1 (Homo sapiens, UniProt Q9GZQ6); assay: NanoBRET screen HiBiT-NPFFR1 in HEK293
T2 construct: purchased Promega (in-house HiBiT-GPCR construct library, NanoBRET)
T2 sequence (Q9GZQ6 whole entry): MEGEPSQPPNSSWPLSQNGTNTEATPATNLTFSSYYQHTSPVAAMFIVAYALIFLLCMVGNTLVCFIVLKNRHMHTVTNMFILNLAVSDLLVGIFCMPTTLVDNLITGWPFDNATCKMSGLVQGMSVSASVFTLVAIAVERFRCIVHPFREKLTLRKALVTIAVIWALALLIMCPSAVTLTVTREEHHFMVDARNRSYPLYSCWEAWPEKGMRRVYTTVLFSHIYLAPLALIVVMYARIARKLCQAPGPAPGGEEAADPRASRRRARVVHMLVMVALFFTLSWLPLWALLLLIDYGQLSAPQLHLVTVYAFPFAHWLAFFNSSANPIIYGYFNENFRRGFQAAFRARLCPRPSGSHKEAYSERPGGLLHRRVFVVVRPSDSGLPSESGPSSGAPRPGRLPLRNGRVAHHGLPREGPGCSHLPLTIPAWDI
Description: as §1, §2

[3] = target: T3, CYSLTR1 (Homo sapiens, UniProt Q9Y271); assay: NanoBRET screen HiBiT-CYSLTR1 in HEK293
T3 construct: purchased Promega (in-house HiBiT-GPCR construct library, NanoBRET)
T3 sequence (Q9Y271 1-337): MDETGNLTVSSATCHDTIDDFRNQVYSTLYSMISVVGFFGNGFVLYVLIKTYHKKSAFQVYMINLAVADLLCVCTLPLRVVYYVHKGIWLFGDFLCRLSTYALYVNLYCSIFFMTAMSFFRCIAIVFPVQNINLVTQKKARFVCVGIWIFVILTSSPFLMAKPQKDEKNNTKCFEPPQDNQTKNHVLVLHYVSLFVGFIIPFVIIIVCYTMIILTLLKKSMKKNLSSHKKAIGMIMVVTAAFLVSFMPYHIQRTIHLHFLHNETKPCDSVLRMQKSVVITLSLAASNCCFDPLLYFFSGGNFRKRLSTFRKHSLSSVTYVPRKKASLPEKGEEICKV
Description: as §1, §2

Row | Compound | NanoBRET Fold Response ([2]; NPFFR1, tracer 0.1μM) | NanoBRET Fold Response ([2]; NPFFR1, tracer 1μM) | NanoBRET Fold Response ([3]; CYSLTR1, tracer 0.1μM) | NanoBRET Fold Response ([3]; CYSLTR1, tracer 1μM) | NanoBRET Fold Response ([1]; NPSR1, tracer 0.1μM) | NanoBRET Fold Response ([1]; NPSR1, tracer 1μM) | also measured
1 | CN(C)CCC=C1c2ccccc2CCc2ccc(C(=O)NCCNC(=O)CCOCCOCCOCCOCCNC(=O)CCc3ccc4n3[B-](F)(F)[N+]3=C(c5ccc[nH]5)C=CC3=C4)cc21 [Amitriptyline-a-2-NB590] | – | – | – | – | – | – | NanoBRET Fold Response ([1]; tracer at 0.1μM): 1.01; NanoBRET Fold Response ([1]; tracer at 1μM): 0.99
2 | Cc1nc2n(c(=O)c1CCN1CCC(c3noc4cc(F)ccc34)CC1)CCCC2OC(=O)NCCOCCOCCOCCOCCNC(=O)CCc1ccc2n1[B-](F)(F)[N+]1=C(c3ccc[nH]3)C=CC1=C2 (centres unmarked) [Risperidone-2-NB590] | 0.97 | 0.95 | 0.97 | 0.94 | 1.00 | 0.90 | –
3 | COc1ccc2[nH]c(-c3ccc(CNC(=O)CCOCCOCCOCCOCCNC(=O)CCc4ccc5n4[B-](F)(F)[N+]4=C(c6ccc[nH]6)C=CC4=C5)cc3)c(CCNC(C)=O)c2n1 [AzomelatoninICO9-2-NB590] | – | – | – | – | – | – | NanoBRET Fold Response ([2]; 1μM tracer): 1.01; NanoBRET Fold Response ([3]; 0.1μM tracer): 0.86; NanoBRET Fold Response ([3]; 1μM tracer): 0.91; NanoBRET Fold Response ([1]; 0.1μM tracer): 0.98; NanoBRET Fold Response ([1]; 1μM tracer): 0.96
4 | COc1ccccc1N1CCN(CCCCN2C(=O)c3ccc(CNC(=O)CCOCCOCCOCCOCCNC(=O)CCc4ccc5n4[B-](F)(F)[N+]4=C(c6ccc[nH]6)C=CC4=C5)cc3C2=O)CC1 [NAN-190-2-NB590] | 0.95 | 1.02 | 1.04 | 1.02 | 0.90 | 0.93 | –
5 | O=C(CCc1ccc2n1[B-](F)(F)[N+]1=C(c3ccc[nH]3)C=CC1=C2)NCCOCCOCCNC(=O)OCCOCCN1CCN(C2=Nc3ccccc3Sc3ccccc32)CC1 [Quetiapine-a-2-NB590] | 0.99 | 1.00 | 0.90 | 1.08 | 0.87 | 0.90 | –
6 | O=C(CCOCCOCCOCCOCCNC(=O)CCc1ccc2n1[B-](F)(F)[N+]1=C(c3ccc[nH]3)C=CC1=C2)NCCCN1CCN(C2=Nc3cc(Cl)ccc3Nc3ccccc32)CC1 [Clozapine-a-2-NB590] | – | – | – | – | – | – | NanoBRET Fold Response ([2]; NPFFR1, 1μM tracer): 0.98; NanoBRET Fold Response ([3]; CYSLTR1, 0.1μM tracer): 0.98; NanoBRET Fold Response ([3]; CYSLTR1, 1μM tracer): 1.11; NanoBRET Fold Response ([1]; NPSR1, 0.1μM tracer): 0.93; NanoBRET Fold Response ([1]; NPSR1, 1μM tracer): 1.15
7 | N#CN=C(NCCCOc1cccc(CN2CCCCC2)c1)NCCNC(=O)CCOCCOCCOCCOCCNC(=O)CCc1ccc2n1[B-](F)(F)[N+]1=C(c3ccc[nH]3)C=CC1=C2 [Aminopotentidine-2-NB590] | 0.96 | 1.02 | 1.05 | 1.00 | 0.99 | 1.01 | –
8 | O=C(CCc1ccc2n1[B-](F)(F)[N+]1=C(c3ccc[nH]3)C=CC1=C2)NCc1ccc(C(=O)NCCOCCOCCNCC(O)COc2cccc3ccccc23)cc1 (centres unmarked) [Propranolol-3-NB590] | – | – | – | – | – | – | NanoBRET Fold Response ([2]; NPFFR1, 0.1μM): 1.01; NanoBRET Fold Response ([2]; NPFFR1, 1μM): 0.99; NanoBRET Fold Response ([3]; CYSLTR1, 0.1μM): 0.71; NanoBRET Fold Response ([1]; NPSR1, 0.1μM): 1.00; NanoBRET Fold Response ([1]; NPSR1, 1μM): 0.98
